From PubChem BioAssay (NCI)
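Where inhibition never reached the appropriate level, the endpoint shown equals the highest concentration tested. Otherwise, values were interpolated linearly from a five-concentration, 48-hour dose response in 96-well plates. TGI: concentration producing complete growth inhibition.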

Key:
Experiment in all cases: NCI-60 cell line screen, 48 h
SNB-75 CNS = tested on: SNB-75 CNS
NCI-H226 lung = tested on: NCI-H226 lung
KM12 colon = tested on: KM12 colon
HCC-2998 colon = tested on: HCC-2998 colon
DMS 273 small cell lung = tested on: DMS 273 small cell lung
786-0 renal = tested on: 786-0 renal
NCI-H460 lung = tested on: NCI-H460 lung
K-562 leukemia = tested on: K-562 leukemia
LXFL 529 NSCLC = tested on: LXFL 529 NSCLC
HCT-15 colon = tested on: HCT-15 colon
UACC-62 melanoma = tested on: UACC-62 melanoma
M14 melanoma = tested on: M14 melanoma
SF-268 CNS = tested on: SF-268 CNS
UO-31 renal = tested on: UO-31 renal
HT29 colon = tested on: HT29 colon
SK-MEL-28 melanoma = tested on: SK-MEL-28 melanoma
U251 CNS = tested on: U251 CNS
CCRF-CEM leukemia = tested on: CCRF-CEM leukemia
A549 NSCLC = tested on: A549 NSCLC
HCT-116 colon = tested on: HCT-116 colon
SR leukemia = tested on: SR leukemia
OVCAR-8 ovarian = tested on: OVCAR-8 ovarian
SK-MEL-2 melanoma = tested on: SK-MEL-2 melanoma
OVCAR-4 ovarian = tested on: OVCAR-4 ovarian
SNB-78 CNS = tested on: SNB-78 CNS
KM20L2 colon = tested on: KM20L2 colon
XF 498 CNS = tested on: XF 498 CNS
IGROV1 ovarian = tested on: IGROV1 ovarian
SN12C renal = tested on: SN12C renal
SK-MEL-5 melanoma = tested on: SK-MEL-5 melanoma
LOX IMVI melanoma = tested on: LOX IMVI melanoma
COLO 205 colon = tested on: COLO 205 colon
HOP-18 NSCLC = tested on: HOP-18 NSCLC
SK-OV-3 ovarian = tested on: SK-OV-3 ovarian
RXF 393 renal = tested on: RXF 393 renal
SF-539 CNS = tested on: SF-539 CNS
NCI-H522 lung = tested on: NCI-H522 lung
SNB-19 CNS = tested on: SNB-19 CNS
HOP-92 NSCLC = tested on: HOP-92 NSCLC
UACC-257 melanoma = tested on: UACC-257 melanoma
HOP-62 NSCLC = tested on: HOP-62 NSCLC
DLD-1 colon = tested on: DLD-1 colon
OVCAR-3 ovarian = tested on: OVCAR-3 ovarian
M19-MEL melanoma = tested on: M19-MEL melanoma
TK-10 renal = tested on: TK-10 renal
NCI-H23 lung = tested on: NCI-H23 lung
CAKI-1 renal = tested on: CAKI-1 renal
HL-60(TB) leukemia = tested on: HL-60(TB) leukemia
SW-620 colon = tested on: SW-620 colon
SF-295 CNS = tested on: SF-295 CNS
ACHN renal = tested on: ACHN renal
EKVX NSCLC = tested on: EKVX NSCLC
RPMI-8226 leukemia = tested on: RPMI-8226 leukemia
MALME-3M melanoma = tested on: MALME-3M melanoma
OVCAR-5 ovarian = tested on: OVCAR-5 ovarian
A498 renal = tested on: A498 renal
MOLT-4 leukemia = tested on: MOLT-4 leukemia

Question: Nc1nc(Cl)cc(NCCCCCCCCNc2cc(Cl)nc(N)n2)n1 was tested. Which TGI (SNB-75 CNS) did it give?
Answer: Its TGI is 74.4 µM.

Question: What about the TGI (NCI-H226 lung) of the same molecule?
Answer: Its TGI is 48.5 µM.

Question: And the TGI (KM12 colon)?
Answer: Its TGI is 56.9 µM.

Question: What about the TGI (HCC-2998 colon) of the same molecule?
Answer: The TGI was over 100 µM.

Question: What about the TGI (DMS 273 small cell lung) of the same molecule?
Answer: The TGI was over 100 µM.

Question: What about the TGI (786-0 renal) of the same molecule?
Answer: The TGI was over 100 µM.

Question: What about the TGI (NCI-H460 lung) of the same molecule?
Answer: The TGI was over 100 µM.

Question: And the TGI (K-562 leukemia)?
Answer: Its TGI is over 100 µM.

Question: And the TGI (LXFL 529 NSCLC)?
Answer: Its TGI is 27.1 µM.

Question: And the TGI (HCT-15 colon)?
Answer: The TGI was over 100 µM.

Question: What about the TGI (UACC-62 melanoma) of the same molecule?
Answer: The TGI was 95.3 µM.

Question: And the TGI (M14 melanoma)?
Answer: Its TGI is over 100 µM.

Question: What about the TGI (SF-268 CNS) of the same molecule?
Answer: Its TGI is over 100 µM.

Question: And the TGI (UO-31 renal)?
Answer: Its TGI is over 100 µM.

Question: And the TGI (HT29 colon)?
Answer: The TGI was over 100 µM.

Question: And the TGI (SK-MEL-28 melanoma)?
Answer: Its TGI is over 100 µM.

Question: And the TGI (U251 CNS)?
Answer: The TGI was over 100 µM.

Question: What about the TGI (CCRF-CEM leukemia) of the same molecule?
Answer: The TGI was over 100 µM.

Question: And the TGI (A549 NSCLC)?
Answer: The TGI was over 100 µM.

Question: And the TGI (HCT-116 colon)?
Answer: The TGI was over 100 µM.

Question: And the TGI (SR leukemia)?
Answer: The TGI was 96.8 µM.

Question: And the TGI (OVCAR-8 ovarian)?
Answer: Its TGI is 58.6 µM.

Question: What about the TGI (SK-MEL-2 melanoma) of the same molecule?
Answer: Its TGI is over 100 µM.

Question: What about the TGI (OVCAR-4 ovarian) of the same molecule?
Answer: The TGI was over 100 µM.

Question: And the TGI (SNB-78 CNS)?
Answer: Its TGI is over 100 µM.

Question: And the TGI (KM20L2 colon)?
Answer: Its TGI is over 100 µM.

Question: And the TGI (XF 498 CNS)?
Answer: Its TGI is 13.7 µM.

Question: What about the TGI (IGROV1 ovarian) of the same molecule?
Answer: The TGI was over 100 µM.

Question: And the TGI (SN12C renal)?
Answer: The TGI was over 100 µM.

Question: What about the TGI (SK-MEL-5 melanoma) of the same molecule?
Answer: Its TGI is 13 µM.

Question: What about the TGI (LOX IMVI melanoma) of the same molecule?
Answer: Its TGI is 34.7 µM.

Question: What about the TGI (COLO 205 colon) of the same molecule?
Answer: Its TGI is over 100 µM.

Question: And the TGI (HOP-18 NSCLC)?
Answer: Its TGI is over 100 µM.

Question: And the TGI (SK-OV-3 ovarian)?
Answer: Its TGI is over 100 µM.

Question: And the TGI (RXF 393 renal)?
Answer: Its TGI is 72 µM.

Question: What about the TGI (SF-539 CNS) of the same molecule?
Answer: The TGI was over 100 µM.

Question: And the TGI (NCI-H522 lung)?
Answer: Its TGI is 37.2 µM.

Question: And the TGI (SNB-19 CNS)?
Answer: Its TGI is over 100 µM.

Question: And the TGI (HOP-92 NSCLC)?
Answer: Its TGI is 85.4 µM.

Question: And the TGI (UACC-257 melanoma)?
Answer: Its TGI is over 100 µM.

Question: What about the TGI (HOP-62 NSCLC) of the same molecule?
Answer: The TGI was over 100 µM.

Question: What about the TGI (DLD-1 colon) of the same molecule?
Answer: Its TGI is over 100 µM.

Question: And the TGI (OVCAR-3 ovarian)?
Answer: Its TGI is over 100 µM.

Question: And the TGI (M19-MEL melanoma)?
Answer: Its TGI is over 100 µM.

Question: What about the TGI (TK-10 renal) of the same molecule?
Answer: The TGI was over 100 µM.

Question: And the TGI (NCI-H23 lung)?
Answer: Its TGI is over 100 µM.

Question: And the TGI (CAKI-1 renal)?
Answer: The TGI was 44.7 µM.

Question: What about the TGI (HL-60(TB) leukemia) of the same molecule?
Answer: Its TGI is 48.5 µM.

Question: And the TGI (SW-620 colon)?
Answer: The TGI was over 100 µM.

Question: What about the TGI (SF-295 CNS) of the same molecule?
Answer: The TGI was 92.1 µM.

Question: What about the TGI (ACHN renal) of the same molecule?
Answer: The TGI was 735 nM.

Question: What about the TGI (EKVX NSCLC) of the same molecule?
Answer: The TGI was over 100 µM.

Question: And the TGI (RPMI-8226 leukemia)?
Answer: The TGI was over 100 µM.

Question: What does the source list for O=[N+]([O-])c1cccc(C2=NN(c3ccccc3)C[N+](c3ccc(Br)cc3)=N2)c1?
Answer: TGI (SNB-75 CNS): > 100 µM; TGI (KM12 colon): > 100 µM; TGI (HCC-2998 colon): > 100 µM; TGI (DMS 273 small cell lung): > 100 µM; TGI (786-0 renal): > 100 µM; TGI (NCI-H460 lung): > 100 µM; TGI (K-562 leukemia): > 100 µM; TGI (LXFL 529 NSCLC): > 100 µM; TGI (HCT-15 colon): > 100 µM; TGI (UACC-62 melanoma): > 100 µM; TGI (M14 melanoma): > 100 µM; TGI (SF-268 CNS): > 100 µM; TGI (UO-31 renal): > 100 µM; TGI (MALME-3M melanoma): > 100 µM; TGI (HT29 colon): > 100 µM; TGI (SK-MEL-28 melanoma): > 100 µM; TGI (U251 CNS): > 100 µM; TGI (A549 NSCLC): > 100 µM; TGI (HCT-116 colon): > 100 µM; TGI (OVCAR-5 ovarian): > 100 µM; TGI (SR leukemia): 16.9 µM; TGI (OVCAR-8 ovarian): > 100 µM; TGI (A498 renal): > 100 µM; TGI (SK-MEL-2 melanoma): > 100 µM; TGI (OVCAR-4 ovarian): > 100 µM; TGI (SNB-78 CNS): > 100 µM; TGI (KM20L2 colon): > 100 µM; TGI (XF 498 CNS): > 100 µM; TGI (IGROV1 ovarian): > 100 µM; TGI (SN12C renal): > 100 µM; TGI (SK-MEL-5 melanoma): > 100 µM; TGI (COLO 205 colon): > 100 µM; TGI (HOP-18 NSCLC): > 100 µM; TGI (SK-OV-3 ovarian): > 100 µM; TGI (RXF 393 renal): > 100 µM; TGI (SF-539 CNS): > 100 µM; TGI (NCI-H522 lung): > 100 µM; TGI (SNB-19 CNS): > 100 µM; TGI (HOP-92 NSCLC): > 100 µM; TGI (UACC-257 melanoma): > 100 µM; TGI (HOP-62 NSCLC): > 100 µM; TGI (DLD-1 colon): > 100 µM; TGI (M19-MEL melanoma): > 100 µM; TGI (TK-10 renal): > 100 µM; TGI (MOLT-4 leukemia): > 100 µM; TGI (NCI-H23 lung): > 100 µM; TGI (CAKI-1 renal): > 100 µM; TGI (SW-620 colon): > 100 µM; TGI (SF-295 CNS): > 100 µM; TGI (ACHN renal): > 100000 nM; TGI (EKVX NSCLC): > 100 µM; TGI (RPMI-8226 leukemia): > 100 µM
